Measurements taken from PubChem BioAssay (NCI).
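Grown in 96-well plates, cells were treated for 48 hours with each compound at five concentrations. Insufficient inhibition: endpoint recorded as highest concentration tested. Definition used: TGI = concentration required for complete inhibition of growth.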

Assays:
Assay in all cases: NCI anticancer screen, dose series, 48 h
OVCAR-5 ovarian = system: OVCAR-5 ovarian
OVCAR-8 ovarian = system: OVCAR-8 ovarian
HCC-2998 colon = system: HCC-2998 colon
MDA-N = system: MDA-N
HOP-92 NSCLC = system: HOP-92 NSCLC
786-0 renal = system: 786-0 renal
MDA-MB-231 breast = system: MDA-MB-231 breast
UACC-62 melanoma = system: UACC-62 melanoma
CAKI-1 renal = system: CAKI-1 renal
LOX IMVI melanoma = system: LOX IMVI melanoma
A549 NSCLC = system: A549 NSCLC
K-562 leukemia = system: K-562 leukemia
EKVX NSCLC = system: EKVX NSCLC
UO-31 renal = system: UO-31 renal
A498 renal = system: A498 renal
T-47D breast = system: T-47D breast
SN12C renal = system: SN12C renal
ACHN renal = system: ACHN renal
RXF 393 renal = system: RXF 393 renal
PC-3 prostate = system: PC-3 prostate
MCF7 breast = system: MCF7 breast
HL-60(TB) leukemia = system: HL-60(TB) leukemia
HT29 colon = system: HT29 colon
OVCAR-3 ovarian = system: OVCAR-3 ovarian
SNB-75 CNS = system: SNB-75 CNS
DU-145 prostate = system: DU-145 prostate
SK-MEL-5 melanoma = system: SK-MEL-5 melanoma
NCI-H226 lung = system: NCI-H226 lung
NCI-H460 lung = system: NCI-H460 lung
COLO 205 colon = system: COLO 205 colon
IGROV1 ovarian = system: IGROV1 ovarian
MDA-MB-435 = system: MDA-MB-435
SK-OV-3 ovarian = system: SK-OV-3 ovarian
M14 melanoma = system: M14 melanoma
HS 578T breast = system: HS 578T breast
HOP-62 NSCLC = system: HOP-62 NSCLC
SK-MEL-28 melanoma = system: SK-MEL-28 melanoma
KM12 colon = system: KM12 colon
TK-10 renal = system: TK-10 renal
SF-295 CNS = system: SF-295 CNS
UACC-257 melanoma = system: UACC-257 melanoma
NCI-H522 lung = system: NCI-H522 lung
BT-549 breast = system: BT-549 breast
NCI-H23 lung = system: NCI-H23 lung
RPMI-8226 leukemia = system: RPMI-8226 leukemia
MALME-3M melanoma = system: MALME-3M melanoma
SW-620 colon = system: SW-620 colon
MOLT-4 leukemia = system: MOLT-4 leukemia
NCI/ADR-RES ovarian = system: NCI/ADR-RES ovarian
HCT-15 colon = system: HCT-15 colon
U251 CNS = system: U251 CNS
OVCAR-4 ovarian = system: OVCAR-4 ovarian
HCT-116 colon = system: HCT-116 colon
SF-268 CNS = system: SF-268 CNS
SNB-19 CNS = system: SNB-19 CNS
SR leukemia = system: SR leukemia
CCRF-CEM leukemia = system: CCRF-CEM leukemia
SK-MEL-2 melanoma = system: SK-MEL-2 melanoma
SF-539 CNS = system: SF-539 CNS

Measured: TGI

CC(C)CN(CC#N)CC(C)C
not listed: SR leukemia | CCRF-CEM leukemia | SK-MEL-2 melanoma | SF-539 CNS
> 100 µM: all other assays above

O=C(Nn1cnn2c(=O)c3ccccc3nc2c1=O)c1ccccc1
not listed: RXF 393 renal | MOLT-4 leukemia | NCI/ADR-RES ovarian
> 100 µM: all other assays above
